According to ChEMBL document CHEMBL4507285, “Data for DCP probe MRL-SYKi” (2021):

Legend:
[1] = biological target: Dual specificity protein kinase TTK (Homo sapiens) (UniProt P33981); conditions: Compound concentration 100.0 nM
[2] = biological target: MAP/microtubule affinity-regulating kinase 4 (Homo sapiens) (UniProt Q96L34); conditions: Compound concentration 100.0 nM
[3] = biological target: Dual serine/threonine and tyrosine protein kinase (Homo sapiens) (UniProt Q6XUX3); conditions: Compound concentration 100.0 nM
[4] = biological target: Ribosomal protein S6 kinase alpha-5 (Homo sapiens) (UniProt O75582); conditions: Compound concentration 100.0 nM
[5] = test system: Proto-oncogene tyrosine-protein kinase receptor Ret (Homo sapiens), P07949 [V804L]; conditions: Compound concentration 100.0 nM
[6] = biological target: Myosin-IIIb (Homo sapiens) (UniProt Q8WXR4); conditions: Compound concentration 100.0 nM
[7] = biological target: Mitogen-activated protein kinase 12 (Homo sapiens) (UniProt P53778); conditions: Compound concentration 100.0 nM
[8] = biological target: Kappa-type opioid receptor (Homo sapiens) (UniProt P41145); conditions: Compound concentration 10.0 uM
[9] = biological target: Phosphatidylinositol 4,5-bisphosphate 3-kinase catalytic subunit alpha isoform (Homo sapiens) (UniProt P42336); conditions: Compound concentration 100.0 nM
[10] = biological target: 3-phosphoinositide-dependent protein kinase 1 (Homo sapiens) (UniProt O15530); conditions: Compound concentration 100.0 nM
[11] = biological target: Tyrosine-protein kinase Fer (Homo sapiens, UniProt P16591); conditions: Compound concentration 100.0 nM
[12] = test system: Serine/threonine-protein kinase B-raf (Homo sapiens), P15056 [V600E]; conditions: Compound concentration 100.0 nM
[13] = biological target: Mitotic checkpoint serine/threonine-protein kinase BUB1 (Homo sapiens) (UniProt O43683); conditions: Compound concentration 100.0 nM
[14] = biological target: Transient receptor potential cation channel subfamily M member 6 (Homo sapiens) (UniProt Q9BX84); conditions: Compound concentration 100.0 nM
[15] = biological target: 5'-AMP-activated protein kinase catalytic subunit alpha-1 (Homo sapiens) (UniProt Q13131); conditions: Compound concentration 100.0 nM
[16] = biological target: MAP kinase-activated protein kinase 2 (Homo sapiens) (UniProt P49137); conditions: Compound concentration 100.0 nM
[17] = biological target: Mitogen-activated protein kinase kinase kinase 1 (Homo sapiens) (UniProt Q13233); conditions: Compound concentration 100.0 nM
[18] = biological target: Mitogen-activated protein kinase kinase kinase 2 (Homo sapiens) (UniProt Q9Y2U5); conditions: Compound concentration 100.0 nM
[19] = biological target: Cyclin-dependent kinase 2 (Homo sapiens) (UniProt P24941); conditions: Compound concentration 100.0 nM
[20] = biological target: Ribosomal protein S6 kinase alpha-2 (Homo sapiens) (UniProt Q15349); conditions: Compound concentration 100.0 nM
[21] = biological target: Serine/threonine-protein kinase ULK2 (Homo sapiens) (UniProt Q8IYT8); conditions: Compound concentration 100.0 nM
[22] = biological target: Serine/threonine-protein kinase RIO2 (Homo sapiens) (UniProt Q9BVS4); conditions: Compound concentration 100.0 nM
[23] = biological target: Calcium/calmodulin-dependent protein kinase type II subunit gamma (Homo sapiens) (UniProt Q13555); conditions: Compound concentration 100.0 nM
[24] = test system: Mast/stem cell growth factor receptor Kit (Homo sapiens), P10721 [D816V]; conditions: Compound concentration 100.0 nM
[25] = biological target: ALK tyrosine kinase receptor (Homo sapiens) (UniProt Q9UM73); conditions: Compound concentration 100.0 nM
[26] = biological target: Mitogen-activated protein kinase kinase kinase 20 (Homo sapiens) (UniProt Q9NYL2); conditions: Compound concentration 100.0 nM
[27] = biological target: Serine/threonine-protein kinase D2 (Homo sapiens) (UniProt Q9BZL6); conditions: Compound concentration 100.0 nM
[28] = biological target: Insulin-like growth factor 1 receptor (Homo sapiens) (UniProt P08069); conditions: Compound concentration 100.0 nM
[29] = biological target: Cyclin-dependent kinase 4 (Homo sapiens) (UniProt P11802); conditions: Compound concentration 100.0 nM
[30] = biological target: Dual specificity protein kinase CLK3 (Homo sapiens) (UniProt P49761); conditions: Compound concentration 100.0 nM
[31] = biological target: Serine/threonine-protein kinase SIK3 (Homo sapiens) (UniProt Q9Y2K2); conditions: Compound concentration 100.0 nM
[32] = biological target: Serine/threonine-protein kinase PAK 3 (Homo sapiens) (UniProt O75914); conditions: Compound concentration 100.0 nM
[33] = biological target: G protein-coupled receptor kinase 3 (Homo sapiens) (UniProt P35626); conditions: Compound concentration 100.0 nM
[34] = biological target: Dual specificity tyrosine-phosphorylation-regulated kinase 2 (Homo sapiens) (UniProt Q92630); conditions: Compound concentration 100.0 nM
[35] = test system: Receptor-type tyrosine-protein kinase FLT3 (Homo sapiens), P36888 [UNDEFINED MUTATION]; conditions: Compound concentration 100.0 nM
[36] = biological target: Myosin light chain kinase family member 4 (Homo sapiens) (UniProt Q86YV6); conditions: Compound concentration 100.0 nM
[37] = biological target: Mitogen-activated protein kinase 13 (Homo sapiens) (UniProt O15264); conditions: Compound concentration 100.0 nM
[38] = biological target: Vascular endothelial growth factor receptor 3 (Homo sapiens) (UniProt P35916); conditions: Compound concentration 100.0 nM
[39] = biological target: NUAK family SNF1-like kinase 2 (Homo sapiens) (UniProt Q9H093); conditions: Compound concentration 100.0 nM
[40] = biological target: Protein kinase C eta type (Homo sapiens) (UniProt P24723); conditions: Compound concentration 100.0 nM
[41] = biological target: Phosphatidylinositol 4-phosphate 5-kinase type-1 alpha (Homo sapiens) (UniProt Q99755); conditions: Compound concentration 100.0 nM
[42] = test system: Receptor-type tyrosine-protein kinase FLT3 (Homo sapiens), P36888 [UNDEFINED MUTATION]; conditions: Compound concentration 100.0 nM; remark: listed apart in the source
[43] = biological target: Mitogen-activated protein kinase kinase kinase kinase 3 (Homo sapiens) (UniProt Q8IVH8); conditions: Compound concentration 100.0 nM
[44] = biological target: Alpha-2C adrenergic receptor (Homo sapiens) (UniProt P18825); conditions: Compound concentration 10.0 uM

Chain of Receptor-type tyrosine-protein kinase FLT3 (Homo sapiens), P36888 [UNDEFINED MUTATION] (P36888 whole entry, looked up, change not shown): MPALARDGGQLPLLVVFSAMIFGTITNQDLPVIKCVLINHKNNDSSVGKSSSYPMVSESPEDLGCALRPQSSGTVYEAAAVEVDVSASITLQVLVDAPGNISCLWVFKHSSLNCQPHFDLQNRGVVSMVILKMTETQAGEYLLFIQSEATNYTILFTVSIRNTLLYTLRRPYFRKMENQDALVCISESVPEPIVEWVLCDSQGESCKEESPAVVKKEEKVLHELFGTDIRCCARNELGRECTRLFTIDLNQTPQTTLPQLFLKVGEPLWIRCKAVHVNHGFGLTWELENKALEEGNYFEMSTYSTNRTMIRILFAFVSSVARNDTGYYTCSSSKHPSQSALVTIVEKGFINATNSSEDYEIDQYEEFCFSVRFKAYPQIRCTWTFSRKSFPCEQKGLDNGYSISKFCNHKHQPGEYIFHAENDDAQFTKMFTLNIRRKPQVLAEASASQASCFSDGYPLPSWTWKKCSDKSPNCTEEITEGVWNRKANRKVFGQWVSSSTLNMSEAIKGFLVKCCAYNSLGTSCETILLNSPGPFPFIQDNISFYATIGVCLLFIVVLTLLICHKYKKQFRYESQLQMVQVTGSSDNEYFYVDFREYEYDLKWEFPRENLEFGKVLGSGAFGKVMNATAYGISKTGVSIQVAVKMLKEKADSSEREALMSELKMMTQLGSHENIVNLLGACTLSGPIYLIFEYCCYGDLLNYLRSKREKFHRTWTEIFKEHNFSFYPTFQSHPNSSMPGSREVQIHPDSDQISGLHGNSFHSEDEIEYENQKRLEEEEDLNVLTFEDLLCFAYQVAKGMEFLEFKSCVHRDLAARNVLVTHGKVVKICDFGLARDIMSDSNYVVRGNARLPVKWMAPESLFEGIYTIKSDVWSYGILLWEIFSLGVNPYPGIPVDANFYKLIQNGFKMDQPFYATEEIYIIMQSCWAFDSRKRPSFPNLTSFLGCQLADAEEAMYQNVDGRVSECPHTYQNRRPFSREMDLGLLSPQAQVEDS
Chain of Mitogen-activated protein kinase 13 (Homo sapiens) (O15264 whole entry): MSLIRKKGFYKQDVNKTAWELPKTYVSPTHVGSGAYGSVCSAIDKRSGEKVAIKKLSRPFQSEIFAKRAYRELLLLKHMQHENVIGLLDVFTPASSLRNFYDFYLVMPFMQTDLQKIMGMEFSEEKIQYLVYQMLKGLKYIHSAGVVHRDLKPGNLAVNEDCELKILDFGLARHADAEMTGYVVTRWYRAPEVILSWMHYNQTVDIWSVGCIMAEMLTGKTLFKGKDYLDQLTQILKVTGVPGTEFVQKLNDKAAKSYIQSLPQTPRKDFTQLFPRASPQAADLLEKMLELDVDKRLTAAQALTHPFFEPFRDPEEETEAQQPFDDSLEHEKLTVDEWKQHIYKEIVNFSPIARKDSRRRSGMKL
Chain of Phosphatidylinositol 4,5-bisphosphate 3-kinase catalytic subunit alpha isoform (Homo sapiens) (P42336 whole entry, canonical isoform): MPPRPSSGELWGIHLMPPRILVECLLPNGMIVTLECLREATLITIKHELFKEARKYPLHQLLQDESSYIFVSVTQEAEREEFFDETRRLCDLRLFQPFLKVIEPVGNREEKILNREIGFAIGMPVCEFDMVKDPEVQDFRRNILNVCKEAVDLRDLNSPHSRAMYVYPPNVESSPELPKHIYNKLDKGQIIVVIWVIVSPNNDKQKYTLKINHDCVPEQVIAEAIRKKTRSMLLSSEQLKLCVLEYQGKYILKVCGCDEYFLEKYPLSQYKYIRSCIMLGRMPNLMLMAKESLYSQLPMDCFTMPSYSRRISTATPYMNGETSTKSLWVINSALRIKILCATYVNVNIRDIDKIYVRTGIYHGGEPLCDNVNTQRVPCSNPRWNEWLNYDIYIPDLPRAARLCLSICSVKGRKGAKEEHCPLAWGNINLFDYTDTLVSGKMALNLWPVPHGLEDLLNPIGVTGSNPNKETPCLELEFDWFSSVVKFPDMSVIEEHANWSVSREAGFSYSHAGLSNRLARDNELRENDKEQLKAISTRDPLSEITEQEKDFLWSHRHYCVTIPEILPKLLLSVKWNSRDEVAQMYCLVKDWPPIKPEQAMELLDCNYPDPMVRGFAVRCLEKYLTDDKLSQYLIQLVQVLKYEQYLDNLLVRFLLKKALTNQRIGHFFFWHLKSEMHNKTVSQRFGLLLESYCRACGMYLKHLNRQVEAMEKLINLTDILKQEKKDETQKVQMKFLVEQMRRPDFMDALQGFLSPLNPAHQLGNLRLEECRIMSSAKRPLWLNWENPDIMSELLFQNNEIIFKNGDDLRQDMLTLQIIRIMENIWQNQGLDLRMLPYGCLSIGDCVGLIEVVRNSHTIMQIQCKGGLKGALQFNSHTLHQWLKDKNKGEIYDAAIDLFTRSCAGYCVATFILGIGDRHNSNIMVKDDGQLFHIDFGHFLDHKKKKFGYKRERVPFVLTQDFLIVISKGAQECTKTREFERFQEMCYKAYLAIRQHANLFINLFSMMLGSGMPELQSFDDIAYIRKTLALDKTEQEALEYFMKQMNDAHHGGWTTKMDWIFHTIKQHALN
Chain of MAP kinase-activated protein kinase 2 (Homo sapiens) (P49137 whole entry, looked up): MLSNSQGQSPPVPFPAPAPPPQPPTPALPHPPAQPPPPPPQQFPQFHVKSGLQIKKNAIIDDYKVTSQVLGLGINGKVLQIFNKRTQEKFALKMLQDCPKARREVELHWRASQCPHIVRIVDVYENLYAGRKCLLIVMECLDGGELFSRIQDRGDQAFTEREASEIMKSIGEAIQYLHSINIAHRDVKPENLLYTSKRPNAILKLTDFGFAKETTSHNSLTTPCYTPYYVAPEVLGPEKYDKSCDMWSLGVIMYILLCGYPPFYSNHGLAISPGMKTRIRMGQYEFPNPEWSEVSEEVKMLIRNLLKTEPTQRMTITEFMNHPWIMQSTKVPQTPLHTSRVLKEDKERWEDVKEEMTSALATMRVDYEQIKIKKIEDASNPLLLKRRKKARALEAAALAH
Chain of Transient receptor potential cation channel subfamily M member 6 (Homo sapiens) (Q9BX84 whole entry): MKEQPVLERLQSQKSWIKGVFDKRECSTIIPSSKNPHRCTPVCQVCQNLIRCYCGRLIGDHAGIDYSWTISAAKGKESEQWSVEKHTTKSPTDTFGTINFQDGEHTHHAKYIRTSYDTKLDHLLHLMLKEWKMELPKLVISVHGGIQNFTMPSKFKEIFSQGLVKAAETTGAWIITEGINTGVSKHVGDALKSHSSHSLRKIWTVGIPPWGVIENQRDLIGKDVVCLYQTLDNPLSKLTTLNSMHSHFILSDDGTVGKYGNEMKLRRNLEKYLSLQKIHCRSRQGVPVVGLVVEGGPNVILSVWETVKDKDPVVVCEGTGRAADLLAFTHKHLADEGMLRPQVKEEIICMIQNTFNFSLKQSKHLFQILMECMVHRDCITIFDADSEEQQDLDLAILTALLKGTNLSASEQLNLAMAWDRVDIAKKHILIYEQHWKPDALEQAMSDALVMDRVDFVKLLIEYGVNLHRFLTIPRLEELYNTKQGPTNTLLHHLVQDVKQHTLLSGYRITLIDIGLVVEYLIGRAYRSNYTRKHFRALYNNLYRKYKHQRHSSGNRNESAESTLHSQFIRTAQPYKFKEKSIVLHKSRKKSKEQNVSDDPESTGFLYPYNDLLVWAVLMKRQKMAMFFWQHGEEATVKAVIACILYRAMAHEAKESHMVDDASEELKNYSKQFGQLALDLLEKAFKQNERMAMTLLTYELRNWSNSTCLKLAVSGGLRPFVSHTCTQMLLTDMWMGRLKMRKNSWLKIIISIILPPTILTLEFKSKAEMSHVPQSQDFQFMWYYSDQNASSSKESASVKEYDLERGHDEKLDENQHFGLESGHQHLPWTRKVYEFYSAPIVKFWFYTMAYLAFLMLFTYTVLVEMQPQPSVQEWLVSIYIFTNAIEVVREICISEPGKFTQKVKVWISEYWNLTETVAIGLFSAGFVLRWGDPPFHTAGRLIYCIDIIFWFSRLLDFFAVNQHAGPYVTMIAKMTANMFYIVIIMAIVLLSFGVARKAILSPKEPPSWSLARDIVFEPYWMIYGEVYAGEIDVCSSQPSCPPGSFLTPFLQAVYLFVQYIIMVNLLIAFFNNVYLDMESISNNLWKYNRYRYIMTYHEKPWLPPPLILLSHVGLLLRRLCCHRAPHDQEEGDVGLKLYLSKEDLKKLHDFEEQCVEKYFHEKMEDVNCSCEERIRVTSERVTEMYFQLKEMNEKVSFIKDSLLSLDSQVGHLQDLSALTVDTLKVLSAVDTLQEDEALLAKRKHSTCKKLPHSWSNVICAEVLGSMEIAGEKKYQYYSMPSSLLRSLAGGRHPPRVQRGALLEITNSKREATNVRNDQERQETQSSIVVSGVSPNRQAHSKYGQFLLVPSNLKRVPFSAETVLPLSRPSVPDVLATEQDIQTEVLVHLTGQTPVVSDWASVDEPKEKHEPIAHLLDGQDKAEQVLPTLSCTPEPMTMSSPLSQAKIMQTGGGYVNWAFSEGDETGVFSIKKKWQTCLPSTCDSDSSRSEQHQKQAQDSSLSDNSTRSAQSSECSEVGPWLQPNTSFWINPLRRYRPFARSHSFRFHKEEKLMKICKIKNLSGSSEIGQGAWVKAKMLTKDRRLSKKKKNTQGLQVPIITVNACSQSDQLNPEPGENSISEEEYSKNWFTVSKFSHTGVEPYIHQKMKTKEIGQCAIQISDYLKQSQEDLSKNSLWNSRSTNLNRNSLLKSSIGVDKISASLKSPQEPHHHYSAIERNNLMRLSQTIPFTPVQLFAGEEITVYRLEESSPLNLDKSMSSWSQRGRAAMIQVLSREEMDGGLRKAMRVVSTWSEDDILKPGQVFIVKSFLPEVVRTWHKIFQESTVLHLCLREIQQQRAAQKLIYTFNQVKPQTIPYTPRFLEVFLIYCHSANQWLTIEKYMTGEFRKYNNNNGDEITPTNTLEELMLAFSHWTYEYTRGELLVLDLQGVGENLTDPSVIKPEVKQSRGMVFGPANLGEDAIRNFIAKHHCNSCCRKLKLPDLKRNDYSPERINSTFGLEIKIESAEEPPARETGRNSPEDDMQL

Cc1ccc(-c2cnc([C@@]3(O)CC[C@H](C(=O)O)C(C)(C)C3)s2)cc1Nc1cccc(C(F)(F)F)n1 [MRL-SYKi-NC]
inactive: residual activity [1] 78.8% | residual activity [2] 71.5% | residual activity [3] 100% | residual activity [4] 100% | residual activity [5] 100% | residual activity [6] 100% | residual activity [7] 98.8% | inhibition [8] -5.83% | residual activity [9] 86.9% | residual activity [10] 95.5% | residual activity [11] 95.4% | residual activity [12] 100% | residual activity [13] 100% | residual activity [14] 77.1% | residual activity [15] 77.6% | residual activity [16] 97.9% | residual activity [17] 96% | residual activity [18] 100% | residual activity [19] 98.8% | residual activity [20] 100% | residual activity [21] 76% | residual activity [22] 100% | residual activity [23] 88.2% | residual activity [24] 100% | residual activity [25] 100% | residual activity [26] 96.9% | residual activity [27] 100% | residual activity [28] 100% | residual activity [29] 100% | residual activity [30] 76% | residual activity [31] 100% | residual activity [32] 76.3% | residual activity [33] 98.3% | residual activity [34] 82.4% | residual activity [35] 100% | residual activity [36] 100% | residual activity [37] 100% | residual activity [38] 100% | residual activity [39] 93.1% | residual activity [40] 74.6% | residual activity [41] 93% | residual activity [42] 97.5% | residual activity [43] 100% | inhibition [44] 11.8%

Cc1cc(Nc2nccc(C)n2)cc(-c2cnc([C@@]3(O)CC[C@H](C(=O)O)C(C)(C)C3)s2)c1 [MRL-SYKi]
inactive: residual activity [1] 74.8% | residual activity [2] 100% | residual activity [3] 100% | residual activity [4] 100% | residual activity [5] 87% | residual activity [6] 76.1% | inhibition [8] 30.6% | residual activity [9] 100% | residual activity [10] 86.5% | residual activity [11] 100% | residual activity [12] 100% | residual activity [13] 100% | residual activity [14] 94.8% | residual activity [15] 100% | residual activity [16] 100% | residual activity [17] 100% | residual activity [18] 100% | residual activity [19] 94.7% | residual activity [20] 86% | residual activity [21] 100% | residual activity [22] 83.9% | residual activity [23] 95.2% | residual activity [24] 100% | residual activity [25] 93.8% | residual activity [26] 92.5% | residual activity [27] 96.1% | residual activity [28] 100% | residual activity [29] 76.9% | residual activity [30] 100% | residual activity [31] 100% | residual activity [32] 100% | residual activity [33] 73.7% | residual activity [34] 100% | residual activity [35] 84.8% | residual activity [36] 100% | residual activity [37] 97.9% | residual activity [38] 91.3% | residual activity [39] 100% | residual activity [40] 97.5% | residual activity [41] 100% | residual activity [42] 59.1% | residual activity [43] 100% | inhibition [44] -3.94%
active: residual activity [7] 31.2%
